Assay results: patent US10954269B2, “Anti-inflammatory tripeptides” (Dr. August Wolff Gmbh & Co. KG Arzneimittel, priority 2013, dated 2021)

Legend:
[1] = test system: primary murine T-cells; assay: Cytokine secretion on protein level in activated primary murine T-cells (13-plex FACS / Luminex, supernatant); assay type: cell-based, C57BL/6 mice; conditions: for IL-1 cytokine concentration / IL-2 cytokine concentration / IL-4 cytokine concentration / IL-5 cytokine concentration / IL-6 cytokine concentration / IL-10 cytokine concentration / IL-13 cytokine concentration / IL-17 cytokine concentration / IL-21 cytokine concentration / IL-22 cytokine concentration / IL-27 cytokine concentration / TNF-α cytokine concentration / IFN-γ cytokine concentration: substance 10^−9M
Summary of the method: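 T-cells from secondary lymphatic organs of naïve C57BL/6 mice, stimulated with PMA/Ionomycin or IFN-γ; supernatant cytokines measured by 13-plex FACS 48 h and 72 h after stimulation. In another run, PMA/Ionomycin-stimulated cells received compounds at 10^−7, 10^−9 and 10^−11 M, with IFN-γ, IL-17 and IL-10 measured by Luminex.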

[2] = test system: primary human T-cells; assay: Cytokine secretion on protein level in activated primary human T-cells (13-plex FACS / Luminex, supernatant); assay type: cell-based
Summary of the method: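 Stimulus: PMA/Ionomycin or IFN-γ, 48 h; cells: HaCaT or human peripheral-blood T-cells; tripeptide treatment; readout: supernatant cytokines via 13-plex FACS or Luminex, 48–72 h post-stimulation.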

[3] = primary murine T-cells stimulated with IFN-γ
[4] = primary murine T-cells stimulated with PBS
[5] = primary murine T-cells stimulated with PMA/Ionomycin
[6] = primary human T-cells stimulated with IFN-γ, substance 10^−9M
[7] = primary human T-cells stimulated with PBS, substance 10^−9M

In the case of “N^α,N^α-dimethyl-(L)-Lys-(D)-Pro-N^α-methyl-(L)-Val-OH [Example 5]”, the “secretion / expression of pro-inflammatory cytokines (supernatant)” value ([1]; activated primary murine T-cells) is reported as “immunomodulatory effects were seen”, the IL-1 cytokine concentration [1, 3] is reported as 49.65 pg/mL and the IL-2 cytokine concentration [1, 3] is reported as 89.76 pg/mL. The IL-4 cytokine concentration [1, 3] was 47.55 pg/mL, the IL-5 cytokine concentration [1, 3] was 263.27 pg/mL and the IL-6 cytokine concentration [1, 3] was 127.92 pg/mL. The IL-10 cytokine concentration [1, 3] was 1359.92 pg/mL, the IL-13 cytokine concentration [1, 3] was 0 pg/mL and the IL-17 cytokine concentration [1, 3] was 97.22 pg/mL. For the same substance, the IL-21 cytokine concentration [1, 3] was 0 pg/mL, the IL-22 cytokine concentration [1, 3] was 32.03 pg/mL and the IL-27 cytokine concentration [1, 3] was 20.07 pg/mL. The TNF-α cytokine concentration [1, 3] was 24.23 pg/mL, the IFN-γ cytokine concentration [1, 4] was 232.8 pg/mL and the IL-1 cytokine concentration [1, 4] was 56.42 pg/mL. It also gave an IL-2 cytokine concentration [1, 4] of 151.25 pg/mL, an IL-4 cytokine concentration [1, 4] of 53.6 pg/mL and an IL-5 cytokine concentration [1, 4] of 209.32 pg/mL. The IL-6 cytokine concentration [1, 4] was 117.95 pg/mL, the IL-10 cytokine concentration [1, 4] was 1311.94 pg/mL and the IL-13 cytokine concentration [1, 4] was 0 pg/mL. For the same substance, the IL-17 cytokine concentration [1, 4] was 0 pg/mL, the IL-21 cytokine concentration [1, 4] was 13.71 pg/mL and the IL-22 cytokine concentration [1, 4] was 27.66 pg/mL. It also gave an IL-27 cytokine concentration [1, 4] of 81.64 pg/mL, a TNF-α cytokine concentration [1, 4] of 32.89 pg/mL and an IFN-γ cytokine concentration [1, 5] of 2075.42 pg/mL. It also gave an IL-1 cytokine concentration [1, 5] of 178.79 pg/mL, an IL-2 cytokine concentration [1, 5] of 112.62 pg/mL and an IL-4 cytokine concentration [1, 5] of 81.4 pg/mL. The IL-5 cytokine concentration [1, 5] was 246.42 pg/mL, the IL-6 cytokine concentration [1, 5] was 189.2 pg/mL and the IL-10 cytokine concentration [1, 5] was 1233.45 pg/mL. It also gave an IL-13 cytokine concentration [1, 5] of 0 pg/mL, an IL-17 cytokine concentration [1, 5] of 0 pg/mL and an IL-21 cytokine concentration [1, 5] of 67.28 pg/mL. The IL-22 cytokine concentration [1, 5] was 29.38 pg/mL, the IL-27 cytokine concentration [1, 5] was 51.58 pg/mL and the TNF-α cytokine concentration [1, 5] was 29.15 pg/mL. For the same substance, the “secretion / expression of pro-inflammatory cytokines (supernatant)” value ([2]; activated primary human T-cells) was “immunomodulatory effects were seen”, the IL-1 cytokine concentration [2, 6] was 0 pg/mL and the IL-2 cytokine concentration [2, 6] was 0 pg/mL. The IL-4 cytokine concentration [2, 6] was 78.18 pg/mL, the IL-5 cytokine concentration [2, 6] was 0 pg/mL and the IL-6 cytokine concentration [2, 6] was 42.52 pg/mL. The IL-9 cytokine concentration [2, 6] was 5.56 pg/mL, the IL-10 cytokine concentration [2, 6] was 61 pg/mL and the IL-12p70 cytokine concentration [2, 6] was 0 pg/mL. It also gave an IL-13 cytokine concentration [2, 6] of 29.25 pg/mL, an IL-17 cytokine concentration [2, 6] of 26.44 pg/mL and an IL-22 cytokine concentration [2, 6] of 0 pg/mL. It also gave a TNF-α cytokine concentration [2, 6] of 12.52 pg/mL, an IL-1 cytokine concentration [2, 7] of 0 pg/mL and an IL-2 cytokine concentration [2, 7] of 0 pg/mL. It also gave an IL-4 cytokine concentration [2, 7] of 0 pg/mL, an IL-5 cytokine concentration [2, 7] of 0 pg/mL and an IL-6 cytokine concentration [2, 7] of 94.11 pg/mL. The IL-9 cytokine concentration [2, 7] was 6.74 pg/mL.
